Legend:
HT1080 cells = assay: Clonogenic survival / colony formation assay, HT1080; assay type: cell-based, human; details: 2.5 μM
Experimental: Several of the candidate irestatins were tested in a hypoxia clonogenic survival assay. […] HT1080 fibrosarcoma cells stably were treated with 1 uM of the indicated irestatin or left untreated, and incubated in hypoxia (0.01% oxygen) for 48 hrs at 37° C. Cells were harvested and counted, and allowed to form colonies under normal oxygen tension. Survival rate is expressed as the fraction of colonies formed divided by the total number of cells seeded for each condition. For all experiments, cells were plated in triplicate, and all experiments were repeated at least three times. These experiments were repeated using MiaPaCa2 cells in place of the HT 1080 fibrosarcoma cells.
For hypoxia survival assays, cells were grown in 60 mm dishes until reaching at 50-70% confluence and shifted to hypoxia (0.1% O2) for 48 hrs. Cells were trypsinized, counted using a hemocytometer, and replated in triplicate at 1,000-20,000 cells per plate in normal culture medium. After 10-12 days of growth under normal oxygen conditions, colonies were stained with 0.2% crystal violet in ethanol and counted. Survival values are expressed as the number of colonies divided by the total number of cells seeded for each condition, normalized to the plating efficiency under normal oxygen conditions. […]
A. Effect of irestatin 9389 on PERK and ATF6 pathways. […] D. Quantification of clonogenic survival assay. […]

HT1080 fibrosarcoma = assay: Cell proliferation assay, HT1080; assay type: cell-based, human; details: same concentrations
Experimental: A. Effect of irestatin 9389 on PERK and ATF6 pathways. HT1080 cells were treated with vehicle alone (lanes 1-4) or 2.5 μM irestatin 9389 (lanes 5-8) and cultured under aerobic conditions for 18 hours (N) or shifted to hypoxia for the indicated times. Protein lysates were analyzed by Western blot analysis using antisera specific for ATF6 (top), CHOP/GADD153 (middle) or actin (bottom). Arrow indicates the cleaved, transcriptionally active form of ATF6. B. Cleavage of caspase-3 in irestatin-treated cells under hypoxia. HT1080 cells were cultured in normoxia (N) or under hypoxia for 36 hours (H 36) in absence or presence of irestatin 9389 (2.5 μM). Arrows indicate proteolytically cleaved caspase-3. C. Colony formation assay. HT1080 cells were treated as in B under normoxia (N) or hypoxia for 48 hours (H 48). Cells were harvested, counted, and allowed to grow under normal culture conditions for 11-12 days. Colonies were visualized with crystal violet staining. D. Quantification of clonogenic survival assay. Values represent the mean+/−SEM from at least 4 independent experiments. E. TUNEL staining of cells treated as in C. F. Quantification of TUNEL-positive cells. Values represent the mean+/−SEM from at least 3 experiments. […] Cells were harvested at the indicated times and counted by hemocytometer. Values represent the mean calculated from triplicate experiments +/−SEM. […]

XBP-luciferase reporter = assay: In vivo bioluminescence imaging of XBP-luciferase tumor xenografts; design: species or system mouse
Experimental: HT1080 fibrosarcoma cells (2×10^6) stably expressing the XBP-luciferase reporter were implanted s.c. into severe combined immune deficient (SCID) mice. Ten minutes prior to imaging, mice were injected i.p. with D-luciferin (150 mg/kg) solubilized in PBS. Optical bioluminescence imaging was performed using the IVIS charged-coupled device camera system (Caliper Life Sciences, Hopkinton, Mass.). Mice were imaged for 1-4 minutes per acquisition scan. Signal intensities were analyzed using Living Image software (Caliper).
A. Irestatin 9389 impairs IREla activity in implanted tumor xenografts. Equal numbers (2×10^6) of XBP-luciferase or CMV-luciferase reporter cells were implanted s.c. into SCID mice. After one week, mice were treated with irestatin 9389 (50 mg/kg), followed by optical bioluminescence imaging. B. Inhibition of tumor growth by irestatin 9389. […] Tumor volumes were calculated based on caliper measurements taken every 3-5 days. Data points represent the mean volume calculated from at least 7 tumors per group, with SEM shown in one direction. […]
The increased sensitivity of irestatin-treated cells to hypoxic stress in vitro indicate that selective inhibition of IRE1α signaling could impact tumor growth. […] In contrast, XBP-1s was not detected in normal pancreas specimens (0/20), and infrequently observed in chronic pancreatitis (1/29) (FIG. 15). […]

[1] = Histopathological analysis of major organs; assay type: in vivo, mouse; details: three doses, 50 mg/kg
Experimental: Complete blood counts (CBC's) and clinical chemistry panels were performed on blood obtained by cardiac puncture after euthanasia with CO2. Gross necropsies were performed, all major viscera were harvested, fixed in 10% buffered neutral formalin, routinely processed for paraffin embedding, and stained with hematoxylin and eosin (H&E). Sections were analyzed by a board-certified veterinary pathologist (DMB).
Pancreas and liver specimens recovered from mice treated with three doses of either vehicle (top) or irestatin 9389 (50 mg/kg; bottom) were sectioned and stained with hematoxylin and eosin.
The increased sensitivity of irestatin-treated cells to hypoxic stress in vitro indicate that selective inhibition of IRE1α signaling could impact tumor growth. […] In contrast, XBP-1s was not detected in normal pancreas specimens (0/20), and infrequently observed in chronic pancreatitis (1/29) (FIG. 15). To explore the effects to irestatin 9389 in vivo, we first established animal dosing parameters using real-time bioluminescence imaging of SCID mice that had been implanted subcutaneously (s.c.) with tumor cells stably expressing the XBP-luciferase reporter. […] The XBP-luciferase signal returned to basal levels by 24 hours after treatment. […] (FIG. 16).

Cc1csc(NC(=O)CSc2nc3c(c(C(F)(F)F)c2C#N)CCC3)n1 [Compound 9389]
colony formation after hypoxia (HT1080 cells; hypoxia 48 hours): strongly inhibited colony formation
survival of HT1080 cells under normal oxygen (HT1080 cells; normal oxygen conditions): negligible effect
growth rate of HT1080 cells under normal conditions (HT1080 fibrosarcoma): negligible effect
duration of robust inhibition of the XBP-luciferase reporter after injection (XBP-luciferase reporter; SCID mice, single doses of 50-60 mg/kg): 6 to 8 h
time at which XBP-luciferase signal returned to basal levels (XBP-luciferase reporter; after treatment): ≤ 24 h
histopathology of all major organs versus vehicle [1]: no significant differences

From patent publication US20090291857A1, “METHODS TO IDENTIFY INHIBITORS OF THE UNFOLDED PROTEIN RESPONSE” (THE BOARD OF TRUSTEES OF THE LELAND STANFORD JUNIOR …, priority 2006, published 2009)
